Bounds are passed on as bounds.

In general, EC50 refers to the concentration giving half of the maximal effect. A low value points to a more potent agent.

This test concerns the target AMPK. In words: AMPK activation, enzyme-linked immunosorbent assay. The test is classed as biochemical. Particulars: Table 14, compounds of Table 7. In outline:
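Read-out: ELISA, used to detect compound-driven activation of AMPK.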
The compound `CS(=O)(=O)c1ccc(C(=O)C2CCN(C(=O)c3ccc(C(=O)NC4CCN(Cc5ccc(OC(F)(F)F)cc5)C[C@H]4F)cn3)CC2)cc1` (stereo partly drawn) [Compound 7-61, N-((3,4-trans)-3-fluoro-1-(4-(trifluoromethoxy)benzyl)piperidin-4-yl)-6-(4-(4-(methylsulfonyl)benzoyl)piperidine-1-carbonyl) nicotinamide] had an EC50 of 1000 to 10000 nM.

On to `N#Cc1ccc(OC2CCN(C(=O)c3ccc(C(=O)NC4CCN(Cc5ccc(OC(F)(F)F)cc5)CC4F)cn3)CC2)cc1` (stereo not drawn) [Compound 7-62, 6-(4-(4-cyanophenoxy)piperidine-1-carbonyl)-N-((3,4-trans)-3-fluoro-1-(4-(trifluoromethoxy)benzyl)piperidin-4-yl)nicotinamide], for which the EC50 was < 1000 nM. With `COc1ccc(C(=O)C2CCN(C(=O)c3ccc(C(=O)NC4CCN(Cc5cnn(C)c5)C[C@H]4F)cn3)CC2)cc1` (stereo partly drawn) [Compound 7-63, N-((3,4-trans)-3-fluoro-1-((1-methyl-1H-pyrazol-4-yl)methyl)piperidin-4-yl)-6-(4-(4-methoxybenzoyl)piperidine-1-carbonyl)nicotinamide], the concentration for a half-maximal effect (EC50) was 10000 to 20000 nM. In the case of `Cc1cc(OC2CCN(C(=O)c3ccc(C(=O)NC4CCN(Cc5ccc(OC(F)(F)C(F)F)cc5)CC4)cn3)CC2)ccc1S(C)(=O)=O` [Compound 7-64, 6-(4-(3-methyl-4-(methylsulfonyl)phenoxy)piperidine-1-carbonyl)-N-(1-(4-(1,1,2,2-tetrafluoroethoxy)benzyl)piperidin-4-yl)nicotinamide], the EC50 was 1000 to 10000 nM. Regarding `N#Cc1ccc(CN2CCC(NC(=O)c3ccc(C(=O)N4CCC(Oc5ccc(C#N)cc5)CC4)nc3)[C@@H](F)C2)cc1` (stereo partly drawn) [Compound 7-67, N-((3,4-trans)-l-(4-cyanobenzyl)-3-fluoropiperidin-4-yl)-6-(4-(4-cyanophenoxy)piperidine-1-carbonyl)nicotinamide], the EC50 was < 1000 nM. Regarding `N#Cc1ccc(CN2CCC(NC(=O)c3ccc(C(=O)N4CCC(C(=O)c5ccc(-n6cccn6)cc5)CC4)nc3)[C@H](F)C2)cc1` (stereo partly drawn) [Compound 7-68, 6-(4-(4-(lH-pyrazol-1-yl)benzoyl)piperidine-1-carbonyl)-N-((3,4-trans)-1-(4-cyanobenzyl)-3-fluoropiperidin-4-yl)nicotinamide], the EC50 was < 1000 nM. For the compound `CC(=O)c1ccc(Oc2ccc(NC(=O)c3ccc(C(=O)N4CCC(C(=O)c5ccc(OC(F)(F)F)cc5)CC4)nc3)cn2)cc1` [Compound 7-70, N-(6-(4-acetylphenoxy)pyridin-3-yl)-6-(4-(4-(trifluoromethoxy)benzoyl)piperidine-1-carbonyl) nicotinamide], the EC50 is < 1000 nM. `N#Cc1ccc(CN2CCC(NC(=O)c3ccc(C(=O)N4CCC(C(=O)c5ccc(OC(F)(F)F)cc5)CC4)nc3)[C@H](F)C2)cc1` (stereo partly drawn) [Compound 7-71, N-((3,4-trans)-1-(4-cyanobenzyl)-3-fluoropiperidin-4-yl)-6-(4-(4-(trifluoromethoxy)benzoyl)piperidine-1-carbonyl) nicotinamide]: the EC50 was < 1000 nM.

In the case of `N#Cc1ccc(CN2CCC(NC(=O)c3ccc(C(=O)N4CCC(C(=O)c5ccc(N6CCCC6)cc5)CC4)nc3)[C@H](F)C2)cc1` (stereo partly drawn) [Compound 7-72, N-((3,4-trans)-1-(4-cyanobenzyl)-3-fluoropiperidin-4-yl)-6-(4-(4-(pyrrolidin-1-yl)benzoyl)piperidine-1-carbonyl)nicotinamide], the EC50 was < 1000 nM. With `N#Cc1ccc(CN2CCC(NC(=O)c3ccc(C(=O)N4CCC(Oc5ccc(S(=O)(=O)C6CC6)cc5)CC4)nc3)[C@H](F)C2)cc1` (stereo partly drawn) [Compound 7-73, N-((3,4-trans)-1-(4-cyanobenzyl)-3-fluoropiperidin-4-yl)-6-(4-(4-(cyclopropylsulfonyl)phenoxy)piperidine-1-carbonyl)nicotinamide], the EC50 lay within 1000 to 10000 nM. Consider `CC(=O)c1ccc(OC2CCN(C(=O)c3ccc(C(=O)NC4CCN(Cc5ccc(C#N)cc5)C[C@H]4F)cn3)CC2)cc1` (stereo partly drawn) [Compound 7-74, 6-(4-(4-acetylphenoxy)piperidine-1-carbonyl)-N-((3,4-trans)-1-(4-cyanobenzyl)-3-fluoropiperidin-4-yl)nicotinamide], for which the EC50 was < 1000 nM.

The values above are taken from patent US9409884B2 (Rigel Pharmaceuticals, Inc., priority 2012, dated 2016).
